How the values were obtained:
full-length human Hpk1 = molecular target: T1, full-length human Hpk1 (Homo sapiens, UniProt Q92918); assay: HPK1 kinase assay (ADP Glo Kinase Assay); assay type: biochemical; settings: full-length human GST-Hpk1, ADP Glo, 75 μM ATP; for IC50: read-out: Hpk1 biochemical (pIC50) (converted)
T1 construct: A recombinant fusion protein consisting of full-length human Hpk1; GST (N)
Protocol: Pharmacological Part HPK1 Kinase Assay
A recombinant fusion protein consisting of full-length human Hpk1 with an N-terminal Glutatione S-transferase (GST) tag was produced in a baculovirus/insect cell expression system. GST-Hpk1 protein was purified from cell lysates by glutathione sepharose affinity chromatography. Kinase inhibition was determined using the ADP Glo™ Kinase Assay kit (Promega, V9101). Test compounds were prepared by serial dilution in dimethyl sulfoxide (DMSO) and 0.1 μl of each dilution was spotted onto a 384-well white Proxiplate (Perkin Elmer, 6008289). 8 μl of kinase assay buffer (40 mM Tris pH 7.5, 2 mM dithiothreitol (DTT), 0.05% Bovine Serum Albumin, 5 mM MgCl2) containing Hpk1 protein was transferred to each well and incubated for 30-45 minutes at room temperature. The enzymatic reaction was started by adding 2 μl of kinase assay buffer containing 75 μM ATP. After 120 minutes, the reaction was stopped by adding 3 μl of ADP Glo™ reagent (Promega, V9101) and incubating 45 minutes at room temperature.

Hpk1 = Hpk1 (Homo sapiens, UniProt Q92918); assay: SLP76 phosphorylation assay (SLP76 pS376 in lysates of HEK293 cells engineered to express Hpk1 and SLP76); assay type: cell-based; settings: HEK293 cells expressing Hpk1 and SLP76, 4 hours incubation; for IC50: read-out: pSLP76 (HEK293) (pIC50) (converted)
Protocol: SLP76 Phosphorylation Assay
Hpk1 inhibition in cells was determined by detection of SLP76 phosphorylation at S376 in lysates from HEK293 cells engineered to express Hpk1 and SLP76. Serial dilutions of test compounds were prepared in cell culture medium and 20 μl was transferred into each well of a 96-well plate containing HEK293 cells in 180 μl of culture medium. After incubation for 4 hours at 37° C./5% CO2, the culture medium was removed, plates were put on ice and cells washed with cold Minimal Essential Medium before lysing in 90 μl of cold Mammalian Protein Extraction Reagent (Thermo Scientific, 78501) for 30 minutes on ice. The cell lysates were transferred to another 96-well plate, centrifuged 10 minutes at 3000 rcf (4° C.) and 30 μl transferred to a 96-well High-bind plate (MSD, L15XB-3). After coating overnight at 4° C., the cell lysate was removed, wells were washed with base buffer (TBS, 0.2% Tween-20), and blocking solution (base buffer containing 3% MSD blocker A) was added to each well for 1 hour at room temperature. The blocking solution was removed, the wells were washed with base buffer, and detection antibody (SLP76 pS376) was added in 25 μl base buffer containing 1% MSD blocker A to each well. After a 2 h incubation at room temperature, the detection antibody was removed, wells were washed four times with base buffer, 25 μl SULFO-TAG labeled goat anti-rabbit secondary antibody (MSD, R32AB-1) in base buffer containing 1% MSD blocker A was added to each well and left for 1 hour at room temperature. Wells were washed 4 times with base buffer, 150 μl Read Buffer T was added to each well, and the plates were read in a Mesoscale plate reader (MSD). IC50 values were determined by curve-fitting the electrochemiluminescent signals obtained from the lysates of HEK293 cells expressing Hpk1 and SLP76 treated with test compounds at various concentrations minus the signal obtained from HEK293 cells expressing SLP76 only.

T1 sequence (Q92918 whole entry, the tested form may be a part): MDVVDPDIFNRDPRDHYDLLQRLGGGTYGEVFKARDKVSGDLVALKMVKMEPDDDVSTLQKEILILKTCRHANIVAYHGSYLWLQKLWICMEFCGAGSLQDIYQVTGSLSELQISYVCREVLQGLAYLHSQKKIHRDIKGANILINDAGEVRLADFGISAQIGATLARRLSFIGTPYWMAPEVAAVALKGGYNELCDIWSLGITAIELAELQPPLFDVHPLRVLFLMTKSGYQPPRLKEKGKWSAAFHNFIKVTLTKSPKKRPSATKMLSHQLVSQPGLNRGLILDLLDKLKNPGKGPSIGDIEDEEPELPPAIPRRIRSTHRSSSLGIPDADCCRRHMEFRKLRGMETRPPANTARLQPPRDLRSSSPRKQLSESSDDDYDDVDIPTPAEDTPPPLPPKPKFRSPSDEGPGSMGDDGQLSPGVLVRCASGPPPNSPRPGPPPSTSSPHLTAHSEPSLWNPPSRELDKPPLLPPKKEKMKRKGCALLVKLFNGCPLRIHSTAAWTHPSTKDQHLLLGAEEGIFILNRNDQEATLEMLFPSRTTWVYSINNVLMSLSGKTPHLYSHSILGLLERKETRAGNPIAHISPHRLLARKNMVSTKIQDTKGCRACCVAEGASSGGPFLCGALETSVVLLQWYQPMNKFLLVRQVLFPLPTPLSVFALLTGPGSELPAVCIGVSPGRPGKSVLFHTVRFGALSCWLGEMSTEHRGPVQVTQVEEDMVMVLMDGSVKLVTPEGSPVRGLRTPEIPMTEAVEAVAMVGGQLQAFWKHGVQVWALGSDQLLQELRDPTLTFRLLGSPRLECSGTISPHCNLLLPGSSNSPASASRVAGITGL
Hpk1, sequence (Q92918 whole entry): as the sequence (Q92918 whole entry, the tested form may be a part) above

Compound	IC50 (full-length human Hpk1)	IC50 (Hpk1)	Hpk1 biochemical (pIC50) (full-length human Hpk1)	pSLP76 (HEK293) (pIC50) (Hpk1)
Nc1ncc(-c2ccc(C3CCOCC3)c([C@@H]3CCCN3)c2)cc1-c1nccs1 [Co. 20]	3.16 nM	170 nM	–	–
Nc1ncc(-c2ccc(C3CCOCC3)c([C@H]3COCCN3)c2)cc1-c1ccncc1 [Co. 80b]	3720 nM	> 10000 nM	–	–
C[C@H]1COC[C@@H](c2cc(-c3cnc(N)c(-c4ccncc4)c3)ccc2C2CCOCC2)N1 (single isomer, unassigned) [Co. 83a]	44.7 nM	1350 nM	–	–
Nc1ncc(-c2ccc(C3CCOCC3)c([C@@H]3C[S@+]([O-])CCN3)c2)cc1-c1ccnc(F)c1 (single isomer, unassigned) [Co. 15b]	200 nM	> 10000 nM	–	–
CN(C)Cc1cc(-c2cnc(N)c(-c3ccnc(NCCCO)c3)c2)ccc1C1CCOCC1 [Co. 75]	41.7 nM	2290 nM	–	–
Cc1cnccc1-c1cc(-c2ccc(C3CCOCC3)c(CN(C)C)c2)cnc1N [Co. 69]	316 nM	–	–	–
Nc1ncc(-c2ccc(C3CCOCC3)c([C@@H]3CCCN3)c2)cc1-c1ccnc(C(F)F)c1 [Co. 34]	17.4 nM	1820 nM	–	–
Nc1ncc(-c2ccc(C3CCOCC3)c([C@@H]3COCCN3)c2)cc1-c1ccncc1 [Co. 80a]	14.5 nM	851 nM	–	–
C[C@@H]1COC[C@H](c2cc(-c3cnc(N)c(-c4ccncc4)c3)ccc2C2CCOCC2)N1 (single isomer, unassigned) [Co. 83b]	5750 nM	–	–	–
Cc1cc(-c2cc(-c3ccc(C4CCOCC4)c(CN(C)C)c3)cnc2N)ccn1 [Co. 70]	115 nM	4370 nM	–	–
Nc1ncc(-c2ccc(C3CCOCC3)c([C@@H]3CCCN3)c2)cc1C1CCOCC1 [Co. 95]	43.7 nM	2240 nM	–	–
Nc1ncc(-c2ccc(C3CCOCC3)c([C@@H]3CCCN3)c2)cc1-c1ccnc(F)c1F [Co. 27]	5.75 nM	240 nM	–	–
Nc1ncc(-c2ccc(C3CCOCC3)c([C@@H]3CCCN3)c2)cc1-c1cc(F)ncc1F [Co. 31]	20.4 nM	1050 nM	–	–
Nc1ncc(-c2ccc(C3CCS(=O)(=O)CC3)c([C@@H]3CCCN3)c2)cc1-c1ccnc(F)c1 [Co. 100]	19.5 nM	1860 nM	–	–
CS(=O)(=O)N1CCC(c2ccc(-c3cnc(N)c(-c4ccnc(F)c4)c3)cc2[C@@H]2CCCN2)CC1 [Co. 98]	26.3 nM	724 nM	–	–
C[C@@H]1CN[C@@H](c2cc(-c3cnc(N)c(-c4ccnc(F)c4)c3)ccc2C2CCOCC2)CO1 [Co. 92]	1950 nM	> 10000 nM	–	–
Nc1ncc(-c2ccc(C3CCOCC3)c([C@@H]3COCCCN3)c2)cc1-c1ccncc1 (single isomer, unassigned) [Co. 93a]	162 nM	4570 nM	–	–
CN(Cc1cc(-c2cnc(N)c(-c3ccncc3)c2)ccc1C1CCOCC1)C1CC1 [Co. 106]	178 nM	7410 nM	–	–
C[C@H]1CN[C@H](c2cc(-c3cnc(N)c(-c4ccnc(F)c4)c3)ccc2C2CCOCC2)CO1 [Co. 94]	12.9 nM	575 nM	–	–
CN(C)Cc1cc(-c2cnc(N)c(C(=O)NCCO)c2)ccc1C1CCOCC1 [Co. 110]	89.1 nM	4680 nM	–	–
Nc1ncc(-c2ccc(C3=CCOC3)c([C@@H]3CCCN3)c2)cc1-c1ccnc(F)c1 [Co. 45]	41.7 nM	1120 nM	–	–
Nc1ncc(-c2ccc(C3CCOCC3)c([C@@H]3CC(F)(F)CN3)c2)cc1-c1ccnc(F)c1 (single isomer, unassigned) [Co. 59]	77.6 nM	5620 nM	–	–
Nc1ncc(-c2ccc(C3CCOCC3)c(-c3cnn[nH]3)c2)cc1-c1ccncc1 [Co. 15]	575 nM	> 10000 nM	–	–
Nc1ncc(-c2ccc(C3CCOCC3)c([C@@H]3CCCN3)c2)nc1-c1ccncc1 [Co. 42]	24.5 nM	2000 nM	–	–
CN(C)Cc1cc(-c2cnc(N)c(-c3ccncn3)c2)ccc1C1CCOCC1 [Co. 77]	14.1 nM	2570 nM	–	–
CN(C)Cc1cc(-c2cnc(N)c(-c3ccnc(NCCO)c3)c2)ccc1C1CCOCC1 [Co. 74]	56.2 nM	1860 nM	–	–

Compound	IC50 (full-length human Hpk1)	IC50 (Hpk1)	Hpk1 biochemical (pIC50) (full-length human Hpk1)	pSLP76 (HEK293) (pIC50) (Hpk1)
Nc1ncc(-c2ccc(N3CCOCC3)c([C@@H]3CCCN3)c2)cc1-c1ccnc(F)c1 [Co. 2]	41.7 nM	871 nM	–	–
CC(CO)CNC(=O)c1cc(-c2ccc(C3CCOCC3)c(CN(C)C)c2)cnc1N (centres unmarked) [Co. 111]	110 nM	5890 nM	–	–
Nc1ncc(-c2ccc(C3CCOCC3)c([C@@H]3CCCN3)c2)cc1-c1ccc(F)cc1 [Co. 62]	31.6 nM	1070 nM	–	–
CC(=O)N1CCC(c2cc(-c3ccc(C4CCOCC4)c([C@@H]4CCCN4)c3)cnc2N)CC1 [Co. 96]	–	–	6.84	5.1
Nc1ncc(-c2ccc(C3CCOCC3)c([C@@H]3CCCN3)c2)cc1-c1ccnc(F)c1Cl [Co. 35]	8.13 nM	676 nM	–	–
Nc1ncc(-c2ccc(C3CCOCC3)c([C@@H]3CCCN3)c2)cc1-c1ccnnc1 [Co. 33]	14.5 nM	2290 nM	–	–
Cc1cc(-c2ccc(C3CCOCC3)c([C@@H]3COCCN3)c2)cnc1N [Co. 86]	120 nM	3980 nM	–	–
Nc1ncc(-c2ccc(N3CCOCC3)c(C3CCCN3)n2)cc1-c1ccncc1 (centres unmarked) [Co. 11]	35.5 nM	5010 nM	–	–
Nc1ncc(-c2ccc(C3CCOCC3)c([C@@H]3CN4CCCC[C@H]4CN3)c2)cc1Br [Co. 104]	58.9 nM	7940 nM	–	–
Nc1ncc(-c2ccc(C3CCOCC3)c([C@@H]3CCCN3)c2)cc1-c1ccncc1F [Co. 28]	10.2 nM	316 nM	–	–
Cn1cc(-c2cc(-c3ccc(C4CCOCC4)c([C@@H]4CCCN4)c3)cnc2N)cn1 [Co. 68]	6.31 nM	1410 nM	–	–
Nc1ncc(-c2ccc(C3CC4(COC4)C3)c([C@@H]3CCCN3)c2)cc1-c1ccnc(F)c1 [Co. 52]	38.9 nM	851 nM	–	–
Nc1ncc(-c2ccc(C3CCOCC3)c([C@H]3CSCCN3)c2)cc1-c1ccnc(F)c1 (single isomer, unassigned) [Co. 103b]	603 nM	> 10000 nM	–	–
Nc1ncc(-c2ccc(C3CCOCC3)c([C@H]3CC4(CC4)CN3)c2)cc1-c1ccncc1 (single isomer, unassigned) [Co. 8b]	135 nM	6920 nM	–	–
Cn1cc(-c2nc(-c3ccc(C4CCOCC4)c([C@@H]4CCCN4)c3)cnc2N)cn1 [Co. 41]	4.57 nM	617 nM	–	–
C[C@H]1CN[C@H](c2cc(-c3cnc(N)c(Br)c3)ccc2C2CCOCC2)CO1 [Co. 79]	25.7 nM	794 nM	–	–
Nc1ncc(-c2ccc([C@H]3CCOC3)c([C@@H]3CCCN3)c2)cc1-c1ccnc(F)c1 (single isomer, unassigned) [Co. 101]	3.72 nM	692 nM	–	–
Nc1ncc(-c2ccc(C3CCOCC3)c([C@@H]3CCCN3)c2)cc1-c1cnn2c1CCCC2 [Co. 18]	17.8 nM	1550 nM	–	–
Nc1ncc(-c2ccc(C3CCOCC3)c([C@H]3CC(F)(F)CN3)c2)cc1-c1ccnc(F)c1 (single isomer, unassigned) [Co. 58]	8710 nM	> 10000 nM	–	–
Nc1ncc(-c2ccc(C3CCSCC3)c([C@@H]3CCCN3)c2)cc1-c1ccnc(F)c1 [Co. 99]	21.4 nM	646 nM	–	–
CS(=O)(=O)N1CC=C(c2ccc(-c3cnc(N)c(-c4ccnc(F)c4)c3)cc2[C@@H]2CCCN2)CC1 [Co. 46]	35.5 nM	1020 nM	–	–
Nc1ncc(-c2ccc(C3CCOCC3)c([C@@H]3CCCN3)c2)cc1-c1ccnc(F)c1 [Co. 1]	7.59 nM	380 nM	–	–
Nc1ncc(-c2ccc(C3CCOCC3)c([C@@H]3CCCN3)c2)cc1C1CCS(=O)(=O)CC1 [Co. 102]	295 nM	> 10000 nM	–	–
Nc1ncc(-c2ccc(C3CCOCC3)c([C@H]3CC4(CC4)CN3)c2)cc1-c1ccnc(F)c1 (single isomer, unassigned) [Compound 5b]	912 nM	–	–	–
Nc1ncc(-c2ccc(C3CCOCC3)c(CN3CCC(F)(F)C3)c2)cc1-c1ccncc1 [Co. 107]	832 nM	–	–	–
